Values joined by “and” are separate entries in the source; they are usually repeats but may differ in a detail not shown here. Equal values may be shown once.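 Where inhibition never reached the appropriate level, the endpoint shown equals the highest concentration tested. Otherwise, values were interpolated linearly from a five-concentration, 48-hour dose response in 96-well plates. GI50: concentration for 50% inhibition of growth. TGI is the concentration that stops growth completely.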 *1 amine or outer side, *2 acyl side, *3 side chain or, on linkers, in order; H or OH if unused. Where a SMILES comes first, the peptide text is derived from it. Bridges are numbered along the chain shown (N, C = ends). Roman numbers before positions name the chains, in order. [ ]: non-standard residue; d: D form. Actinocin(1to9) = Cc1c2oc3c(C)ccc(C(=O)[*:2])c3nc-2c(C(=O)[*:1])c(N)c1=O; NMeV = CN[CH](C(=O)O)C(C)C; Sar = CNCC(=O)O
What was measured:
Assay in all cases: NCI tumour cell line growth inhibition, 48 h
[1] = test system: CCRF-CEM leukemia
[2] = test system: A498 renal
[3] = test system: MDA-MB-435
[4] = test system: PC-3 prostate
[5] = test system: SK-OV-3 ovarian
[6] = test system: SF-295 CNS
[7] = test system: OVCAR-4 ovarian
[8] = test system: K-562 leukemia
[9] = test system: LOX IMVI melanoma
[10] = test system: OVCAR-5 ovarian
[11] = test system: OVCAR-3 ovarian
[12] = test system: M14 melanoma
[13] = test system: UACC-62 melanoma
[14] = test system: 786-0 renal
[15] = test system: KM12 colon
[16] = test system: SK-MEL-2 melanoma
[17] = test system: TK-10 renal

| SMILES | TGI [1] | TGI [2] | TGI [3] | TGI [4] | TGI [5] | TGI [6] | GI50 [7] | TGI [7] | TGI [8] | TGI [9] | GI50 [10] | TGI [10] | GI50 [11] | TGI [11] | TGI [12] | TGI [13] | TGI [14] | TGI [15] | TGI [16] | TGI [17] |
| --- | --- | --- | --- | --- | --- | --- | --- | --- | --- | --- | --- | --- | --- | --- | --- | --- | --- | --- | --- | --- |
| COc1ccc(CC2NC(=O)C(NC(=O)c3c4nc5c(C(=O)NC6C(=O)NC(Cc7ccc(OC)cc7)C(=O)N7CCCC7C(=O)N(C)CC(=O)N(C)C(C(C)C)C(=O)OC6C)ccc(C)c5oc-4c(C)c(=O)c3N)C(C)OC(=O)C(C(C)C)N(C)C(=O)CN(C)C(=O)C3CCCN3C2=O)cc1 (stereo not given) (I: TY(Me)P[Sar][NMeV] / II: TY(Me)P[Sar][NMeV]; ester I:1-I:C, II:1-II:C; linker I:N-II:N via Actinocin(1to9); configuration not given here) | 0.0418 µM | 0.0242 µM | 0.0265 µM | 0.355 µM and 0.212 µM | 12.6 µM | > 100 µM | 0.0138 µM | 0.49 µM and 0.224 µM | 0.0708 µM | 0.0144 µM | 0.0302 µM | 0.419 µM and 0.67 µM | < 0.001 µM | 0.025 µM and 0.0737 µM | 0.135 µM | 0.00628 µM and 0.0307 µM | 0.0253 µM | 1.06 µM | 0.00549 µM |  |
| CC1=C(C)C2(C#N)C(=O)N3C(=NC(c4ccco4)NC3c3ccco3)C2(C#N)C(c2ccco2)N1 (stereo not given) | > 100 µM | > 100 µM | > 100 µM | > 100 µM | > 100 µM | > 100 µM |  | > 100 µM |  | > 100 µM |  | > 100 µM |  |  | > 100 µM | > 100 µM | > 100 µM | > 100 µM | > 100 µM | > 100 µM |
| COC(=O)C(Cc1c(-c2[nH]c3ccccc3c2CC(NC(C)=O)C(=O)OC)[nH]c2ccccc12)NC(C)=O (stereo not given) | > 100 µM | > 100 µM | > 100 µM | > 100 µM | > 100 µM | > 100 µM |  |  | > 100 µM | > 100 µM |  | > 100 µM |  | > 100 µM | > 100 µM | > 100 µM | > 100 µM | > 100 µM | > 100 µM | > 100 µM |
| C=C1C(=O)O[C@H]2C(=O)[C@H](C)CCC/C(C)=C/CC[C@@]3(C)O[C@@H]3C[C@@H]12 | 4.18 µM | 32.8 µM | 5.82 µM | 21.2 µM | 30.3 µM | 27.3 µM |  |  | 10.2 µM | 3.03 µM |  | 18.9 µM |  | 3.52 µM | 3.28 µM | 16.8 µM | 3.02 µM | 22.3 µM | 20.9 µM | 1.65 µM |
| OC(Cc1cnnc2ccccc12)C(Cl)(Cl)Cl (stereo not given) | > 10 µM | > 10 µM | > 10 µM | > 10 µM | > 10 µM | > 10 µM |  | > 10 µM | > 10 µM | > 10 µM |  |  |  | > 10 µM | > 10 µM | > 10 µM | > 10 µM | > 10 µM | > 10 µM | > 10 µM |
| c1ccc(C2(c3cc4ccccc4[nH]3)OCCO2)nc1 | > 100 µM | > 100 µM | > 100 µM | > 100 µM | > 100 µM | > 100 µM |  | > 100 µM |  | > 100 µM |  | > 100 µM |  | > 100 µM | > 100 µM | > 100 µM | > 100 µM | > 100 µM | > 100 µM | > 100 µM |
| C#CC(O)/C=C/C(O)CCCC(O)CC#CC(O)C#CCCCCC(O)/C=C/CCCCCC(=O)CCCCCCCCCCCCCC(O)C(O)C#CC(=O)O (stereo not given) | > 25 µM | > 25 µM | > 25 µM | > 25 µM | > 25 µM | > 25 µM |  | > 25 µM | > 25 µM | 9.88 µM |  | > 25 µM |  |  | > 25 µM | > 25 µM | > 25 µM | > 25 µM | > 25 µM | > 25 µM |
| CSc1ccccc1NC1=NCCO1 | > 100 µM | > 100 µM | > 100 µM | > 100 µM |  | > 100 µM |  | > 100 µM | > 100 µM | > 100 µM |  | > 100 µM |  | > 100 µM | > 100 µM | > 100 µM | > 100 µM | > 100 µM | > 100 µM | > 100 µM |
| c1ccc(CN2C3C4N(Cc5ccccc5)C2C2N(Cc5ccccc5)C(C(N2Cc2ccccc2)N4Cc2ccccc2)N3Cc2ccccc2)cc1 | > 100 µM | > 100 µM | > 100 µM | > 100 µM | > 100 µM | > 100 µM |  |  | > 100 µM | > 100 µM |  | > 100 µM |  | > 100 µM | > 100 µM | > 100 µM | > 100 µM | > 100 µM | > 100 µM | > 100 µM |
| CN(C)CCNc1ncnc2nc(-c3ccccc3)c(-c3ccccc3)nc12 | > 100 µM | > 100 µM | > 100 µM | > 100 µM | > 100 µM |  |  |  |  | > 100 µM |  | > 100 µM |  | > 100 µM | > 100 µM | > 100 µM | > 100 µM | > 100 µM | > 100 µM | > 100 µM |
